Laboratory results as given in US20250304923A1, “Novel HIV-1 Variants And Their Methods Of Use In An Animal Challenge Model” (priority 2022, published 2025).
Read-outs that look alike come from different tables or passages of the source.

What was measured:
virus stocks = test: Susceptibility of virus stocks to post-exposure prophylaxis drugs (VELA Diagnostics); conditions: all virus stocks, prior to animal testing
Description: Virus stocks and biologic samples from infected animals were handled with biosafety level 3 operating procedures within a biosafety level 2 physical facility. […] This ensured that any research personnel, in case of accidental exposure to viruses or virus-exposed animals, could be successfully treated with standard post-exposure protocols if necessary.

[1] = tested on: blood lymphocytes, NK cells, B cells, monocytes; test: Immune cell dynamics during dexamethasone administration (flow cytometry of blood); design: species or system owl monkeys; conditions: monkey, in vivo
Description: FIG. S8. […] In the top graph, the plasma viremia is reported for each of three animals over the course of the experiment. ND=no HIV-1 RNA detected. In the remainder of the rows, flow cytometry was performed on fresh Nancy Ma's owl monkey blood to enumerate the indicated cell types over the time course of infection. Antibodies: CD8 Invitrogen #MHCD0801; CD4 BD #550631; CD3 BD #563916 or #563918; CD20 BD #340941; CD16 BD #563892; CD14 BD #557923.
There are other data to support this. In a few animals, Applicants observe undetectable viremia after the acute phase, like elite controllers (one such animal shown in FIG. S29A). Set point viremia in these animals is below 80 HIV-1 RNA copies per mL, our assay LoQ.

[2] = design: species or system Nancy Ma's owl monkeys; conditions: monkey, in vivo

Description for HIVnom: Two Nancy Ma's owl monkeys were intravenously injected with 1.3×10^6 infectious units of HIVnom1 and another two with 2.1×10^6 infectious units of HIVnom2 (FIG. 2a). Blood was drawn weekly for up to 30 weeks, with the “0” timepoint taken from the leg opposite to the site of virus injection five minutes after inoculation. Blood samples were sent to the University of Washington Clinical Retrovirology Laboratory (a human clinical diagnostics lab in Seattle, WA, USA) for determination of plasma viremia by RT-qPCR.
Treatment consisted of a once-daily subcutaneous injection. […] Study animals were maintained at 6 mg/kg for an additional 1-2 weeks.
Plasma vRNA quantification was performed by the commercial human diagnostic services at the University of Washington Retrovirology Laboratory (UWRL; Department of Laboratory Medicine, Seattle, WA, USA) using the Abbott RealTime HIV-1 RNA assay (Abbot #06L18-090) in conjunction with RT-qPCR instrumentation, practices, and procedures standard to that laboratory. Briefly, 500 μL of frozen EDTA owl monkey plasma were submitted for analysis and then diluted to 1 mL by the laboratory prior to processing. The range of vRNA quantitation for the assay is 40-10,000,000 HIV-1 genomes/mL when using undiluted samples, although the range of vRNA reported in this study was 80-20,000,000 HIV-1 genomes per mL due to the dilution required for the animal samples. The laboratory reported four possible outcomes: 1) virus detected and a vRNA quantification in HIV-1 genomes/mL; 2) virus detected but numbers were below the lower limit of quantification (<80 HIV-1 genomes/mL); 3) virus detected but the numbers were above the upper limit of quantification (>20 million HIV-1 genomes/mL); 4) virus not detected. The vRNA assay was performed for each animal prior to the start of the study, on the day of exposure (day 0), and on multiple days throughout the study (File S1).

Compound: Nc1nc(=O)n([C@@H]2CS[C@H](CO)O2)cc1F [emtricitabine]
- susceptibility of virus stocks to drug (virus stocks): susceptible

Compound: Cc1nnc(C(=O)NC(C)(C)c2nc(C(=O)NCc3ccc(F)cc3)c(O)c(=O)n2C)o1 [raltegravir]
- susceptibility of virus stocks to drug (virus stocks): susceptible

Compound: C[C@H](Cn1cnc2c(N)ncnc21)OCP(=O)(O)O [tenofovir]
- susceptibility of virus stocks to drug (virus stocks): susceptible

Compound: Dexamethasone sodium phosphate
- depletion of blood immune cells [1]: reversibly depleting blood lymphocytes, NK cells, and B cells, but not monocytes
- hypokalemia [2]: mild hypokalemia noted to occur in some animals
- peak rebound viremia upon dexamethasone treatment (HIVnom; animal BO): 92 HIVnom genomes per mL
- peak rebound viremia upon dexamethasone treatment (HIVnom; animal JI): 258 HIVnom genomes per mL
- peak rebound viremia upon dexamethasone treatment (HIVnom; animal KI): 612 HIVnom genomes per mL
- peak rebound viremia upon dexamethasone treatment (HIVnom; animal RI): 18,220 HIVnom genomes per mL
- virus rebound in blood during dexamethasone treatment (HIVnom; three of the four animals infected with HIVnom1 or HIVnom2, subcutaneous, several weeks): virus rebounded into the blood to detectable levels
